Assay results published in the NIST ThermoML archive (doi:10.1021/je401120a).

Test: xn = mol fraction of the nth substance listed
Settings: 101 kPa, Liquid; for electrical conductivity: Crison conductimeter (model GLP31); for speed of sound: Pulse-echo method; for mass density: Vibrating tube method

CCC[n+]1ccccc1.F[B-](F)(F)F [1-propylpyridinium tetrafluoroborate] + CO
Settings	electrical conductivity [S/m]	mass density [kg/m3]	speed of sound [m/s]	viscosity [mPa·s]
293.15 K, x1 = 0.028	–	846.441	1164.9	–
293.15 K, x1 = 0.0313	2.58	–	–	–
293.15 K, x1 = 0.0365	2.84	–	–	–
293.15 K, x1 = 0.0422	3.07	–	–	–
293.15 K, x1 = 0.0505	–	–	–	1.267
293.15 K, x1 = 0.0577	–	893.625	1208.5	–
293.15 K, x1 = 0.0658	3.66	–	–	–
293.15 K, x1 = 0.0775	3.86	–	–	–
293.15 K, x1 = 0.0894	4.05	–	–	–
293.15 K, x1 = 0.0967	–	944.389	1257.2	–
293.15 K, x1 = 0.0993	–	–	–	2.52
293.15 K, x1 = 0.1294	4.37	–	–	–
293.15 K, x1 = 0.1409	4.4	–	–	–
293.15 K, x1 = 0.1459	–	995.788	1311.1	–
293.15 K, x1 = 0.1703	4.48	–	–	–
293.15 K, x1 = 0.191	–	–	–	5.73
293.15 K, x1 = 0.1952	–	1036.49	1362.9	–
293.15 K, x1 = 0.2002	4.41	–	–	–
293.15 K, x1 = 0.2456	4.22	–	–	–
293.15 K, x1 = 0.2819	3.93	–	–	–
293.15 K, x1 = 0.291	–	–	–	9.737
293.15 K, x1 = 0.3213	–	1110.62	1458	–
293.15 K, x1 = 0.3507	3.46	–	–	–
293.15 K, x1 = 0.3918	–	–	–	14.39
293.15 K, x1 = 0.3937	3.13	–	–	–
293.15 K, x1 = 0.4002	–	1143.05	1496.5	–
293.15 K, x1 = 0.4334	2.77	–	–	–
293.15 K, x1 = 0.464	2.55	–	–	–
293.15 K, x1 = 0.4929	–	–	–	20.26
293.15 K, x1 = 0.4965	–	1173.27	1541.5	–
293.15 K, x1 = 0.5398	1.98	–	–	–
293.15 K, x1 = 0.5988	–	1198.33	1575.7	–
293.15 K, x1 = 0.6117	–	–	–	29.28
293.15 K, x1 = 0.635	1.46	–	–	–
293.15 K, x1 = 0.6904	–	1216.19	1598.4	–
293.15 K, x1 = 0.7331	–	–	–	46.22
293.15 K, x1 = 0.7918	0.639	–	–	–
293.15 K, x1 = 0.7923	–	–	–	61.38
293.15 K, x1 = 0.8011	–	1233.62	1621.5	–
293.15 K, x1 = 0.8425	–	–	–	77.91
293.15 K, x1 = 0.8824	–	1244.23	1637.1	–
293.15 K, x1 = 0.894	0.422	–	–	–
293.15 K, x1 = 0.8956	–	–	–	99.92
293.15 K, x1 = 0.9384	0.355	–	–	–
293.15 K, x1 = 0.94	–	1250.69	1646.4	–
293.15 K, x1 = 0.9447	–	–	–	125.55
293.15 K, x1 = 1	0.302	1256.67	1653.9	160
303.15 K, x1 = 0.028	–	837.96	1134.5	–
303.15 K, x1 = 0.0313	2.99	–	–	–
303.15 K, x1 = 0.0365	3.28	–	–	–
303.15 K, x1 = 0.0422	3.59	–	–	–
303.15 K, x1 = 0.0505	–	–	–	0.9388
303.15 K, x1 = 0.0577	–	885.479	1179.8	–
303.15 K, x1 = 0.0658	4.29	–	–	–
303.15 K, x1 = 0.0775	4.56	–	–	–
303.15 K, x1 = 0.0894	4.84	–	–	–
303.15 K, x1 = 0.0967	–	936.347	1230.9	–
303.15 K, x1 = 0.0993	–	–	–	1.76
303.15 K, x1 = 0.1294	5.15	–	–	–
303.15 K, x1 = 0.1409	5.25	–	–	–
303.15 K, x1 = 0.1459	–	987.6	1286.2	–
303.15 K, x1 = 0.1703	5.38	–	–	–
303.15 K, x1 = 0.191	–	–	–	3.674
303.15 K, x1 = 0.1952	–	1028.35	1339.4	–
303.15 K, x1 = 0.2002	5.35	–	–	–
303.15 K, x1 = 0.2456	5.16	–	–	–
303.15 K, x1 = 0.2819	4.8	–	–	–
303.15 K, x1 = 0.291	–	–	–	6.277
303.15 K, x1 = 0.3213	–	1102.55	1433.2	–
303.15 K, x1 = 0.3507	4.31	–	–	–
303.15 K, x1 = 0.3918	–	–	–	8.954
303.15 K, x1 = 0.3937	3.94	–	–	–
303.15 K, x1 = 0.4002	–	1135.04	1477.2	–
303.15 K, x1 = 0.4334	3.52	–	–	–
303.15 K, x1 = 0.464	3.16	–	–	–
303.15 K, x1 = 0.4929	–	–	–	12.66
303.15 K, x1 = 0.4965	–	1165.53	1516.7	–
303.15 K, x1 = 0.5398	2.59	–	–	–
303.15 K, x1 = 0.5988	–	1190.7	1550.9	–
303.15 K, x1 = 0.6117	–	–	–	18.63
303.15 K, x1 = 0.635	2.01	–	–	–
303.15 K, x1 = 0.6904	–	1208.71	1574	–
303.15 K, x1 = 0.7331	–	–	–	29.44
303.15 K, x1 = 0.7918	1.04	–	–	–
303.15 K, x1 = 0.7923	–	–	–	38
303.15 K, x1 = 0.8011	–	1226.21	1597.3	–
303.15 K, x1 = 0.8425	–	–	–	47.82
303.15 K, x1 = 0.8824	–	1236.99	1612.7	–
303.15 K, x1 = 0.894	0.702	–	–	–
303.15 K, x1 = 0.8956	–	–	–	59.95
303.15 K, x1 = 0.9384	0.625	–	–	–
303.15 K, x1 = 0.94	–	1243.5	1622.4	–
303.15 K, x1 = 0.9447	–	–	–	73.49
303.15 K, x1 = 1	0.516	1249.54	1629.8	90.75
313.15 K, x1 = 0.028	–	829.037	1104.3	–
313.15 K, x1 = 0.0313	3.41	–	–	–
313.15 K, x1 = 0.0365	3.77	–	–	–
313.15 K, x1 = 0.0422	4.13	–	–	–
313.15 K, x1 = 0.0505	–	–	–	0.7578
313.15 K, x1 = 0.0577	–	876.892	1151.5	–
313.15 K, x1 = 0.0658	4.95	–	–	–
313.15 K, x1 = 0.0775	5.27	–	–	–
313.15 K, x1 = 0.0894	5.59	–	–	–
313.15 K, x1 = 0.0967	–	927.831	1204.8	–
313.15 K, x1 = 0.0993	–	–	–	1.273
313.15 K, x1 = 0.1294	6.03	–	–	–
313.15 K, x1 = 0.1409	6.12	–	–	–
313.15 K, x1 = 0.1459	–	979.474	1261.3	–
313.15 K, x1 = 0.1703	6.3	–	–	–
313.15 K, x1 = 0.191	–	–	–	2.523
313.15 K, x1 = 0.1952	–	1020.19	1314.3	–
313.15 K, x1 = 0.2002	6.26	–	–	–
313.15 K, x1 = 0.2456	6.05	–	–	–
313.15 K, x1 = 0.2819	5.68	–	–	–
313.15 K, x1 = 0.291	–	–	–	4.303
313.15 K, x1 = 0.3213	–	1094.6	1409.3	–
313.15 K, x1 = 0.3507	5.15	–	–	–
313.15 K, x1 = 0.3918	–	–	–	6.052
313.15 K, x1 = 0.3937	4.76	–	–	–
313.15 K, x1 = 0.4002	–	1127.34	1453.2	–
313.15 K, x1 = 0.4334	4.32	–	–	–
313.15 K, x1 = 0.464	3.91	–	–	–
313.15 K, x1 = 0.4929	–	–	–	8.501
313.15 K, x1 = 0.4965	–	1157.84	1492.7	–
313.15 K, x1 = 0.5398	3.26	–	–	–
313.15 K, x1 = 0.5988	–	1183.22	1527.3	–
313.15 K, x1 = 0.6117	–	–	–	12.48
313.15 K, x1 = 0.635	2.5	–	–	–
313.15 K, x1 = 0.6904	–	1201.32	1550.3	–
313.15 K, x1 = 0.7331	–	–	–	20
313.15 K, x1 = 0.7918	1.5	–	–	–
313.15 K, x1 = 0.7923	–	–	–	25.3
313.15 K, x1 = 0.8011	–	1218.9	1573.6	–
313.15 K, x1 = 0.8425	–	–	–	31.76
313.15 K, x1 = 0.8824	–	1229.83	1589.4	–
313.15 K, x1 = 0.894	1.05	–	–	–
313.15 K, x1 = 0.8956	–	–	–	38.87
313.15 K, x1 = 0.9384	0.94	–	–	–
313.15 K, x1 = 0.94	–	1236.33	1598.5	–
313.15 K, x1 = 0.9447	–	–	–	46.64
313.15 K, x1 = 1	0.799	1242.43	1606.3	56.02
323.15 K, x1 = 0.028	–	820.035	1073.8	–
323.15 K, x1 = 0.0313	3.87	–	–	–
323.15 K, x1 = 0.0365	4.25	–	–	–
323.15 K, x1 = 0.0422	4.68	–	–	–
323.15 K, x1 = 0.0505	–	–	–	0.673
323.15 K, x1 = 0.0577	–	867.868	1123.5	–
323.15 K, x1 = 0.0658	5.62	–	–	–
323.15 K, x1 = 0.0775	6	–	–	–
323.15 K, x1 = 0.0894	6.37	–	–	–
323.15 K, x1 = 0.0967	–	918.92	1178.7	–
323.15 K, x1 = 0.0993	–	–	–	1.009
323.15 K, x1 = 0.1294	6.98	–	–	–
323.15 K, x1 = 0.1409	7.05	–	–	–
323.15 K, x1 = 0.1459	–	970.736	1237	–
323.15 K, x1 = 0.1703	7.23	–	–	–
323.15 K, x1 = 0.191	–	–	–	1.915
323.15 K, x1 = 0.1952	–	1011.68	1291	–
323.15 K, x1 = 0.2002	7.2	–	–	–
323.15 K, x1 = 0.2456	7	–	–	–
323.15 K, x1 = 0.2819	6.64	–	–	–
323.15 K, x1 = 0.291	–	–	–	3.255
323.15 K, x1 = 0.3213	–	1086.6	1385.4	–
323.15 K, x1 = 0.3507	6.05	–	–	–
323.15 K, x1 = 0.3918	–	–	–	4.475
323.15 K, x1 = 0.3937	5.63	–	–	–
323.15 K, x1 = 0.4002	–	1119.59	1429.5	–
323.15 K, x1 = 0.4334	5.12	–	–	–
323.15 K, x1 = 0.464	4.78	–	–	–
323.15 K, x1 = 0.4929	–	–	–	6.13
323.15 K, x1 = 0.4965	–	1150.3	1467.3	–
323.15 K, x1 = 0.5398	3.97	–	–	–
323.15 K, x1 = 0.5988	–	1175.76	1503.9	–
323.15 K, x1 = 0.6117	–	–	–	8.91
323.15 K, x1 = 0.635	3.15	–	–	–
323.15 K, x1 = 0.6904	–	1193.84	1527.1	–
323.15 K, x1 = 0.7331	–	–	–	14.27
323.15 K, x1 = 0.7918	1.96	–	–	–
323.15 K, x1 = 0.7923	–	–	–	18.12
323.15 K, x1 = 0.8011	–	1211.54	1550.5	–
323.15 K, x1 = 0.8425	–	–	–	22.39
323.15 K, x1 = 0.8824	–	1222.55	1566.5	–
323.15 K, x1 = 0.894	1.48	–	–	–
323.15 K, x1 = 0.8956	–	–	–	26.94
323.15 K, x1 = 0.9384	1.34	–	–	–
323.15 K, x1 = 0.94	–	1229.15	1575	–
323.15 K, x1 = 0.9447	–	–	–	31.72
323.15 K, x1 = 1	1.15	1235.31	1583.3	36.99
